# Patent US9688699B2, “3-(pyrimidine-2-yl)imidazo[1,2-a]pyridines” (Bayer Pharma Aktiengesellschaft, priority 2014, dated 2017)
# pIC50: −log10 of the molar value. Where a name gives a salt, the structure may show the parent alone.
# Key:
# [1] = molecular target: T1, human phosphodiesterase 5 (PDE 5) (Homo sapiens, UniProt O76074); test: Inhibition of human phosphodiesterase 5 (PDE 5) (B-3); format: biochemical; settings: PDE 5 preparation from human platelets; [8-3H] cGMP substrate, SPA; in some cases means of individual determinations
# T1 construct: PDE 5 preparations are obtained from human platelets by disruption; from tissue; host or cells: human platelets (Mono Q ion exchange fractions with PDE 5 activity)
# Method: B-3. Inhibition of Human Phosphodiesterase 5 (PDE 5)
# PDE 5 preparations are obtained from human platelets by disruption (Microfluidizer®, 800 bar, 3 passes), followed by centrifugation (75 000 g, 60 min, 4° C.) and ion exchange chromatography of the supernatant on a Mono Q 10/10 column (linear sodium chloride gradient, elution with a 0.2-0.3M solution of sodium chloride in buffer (20 mM Hepes pH 7.2, 2 mM magnesium chloride). Fractions having PDE 5 activity are combined (PDE 5 preparation) and stored at −80° C.
# To determine their in vitro action on human PDE 5, the test substances are dissolved in 100% DMSO and serially diluted. Typically, dilution series (1:3) from 200 μM to 0.091 μM are prepared (resulting final concentrations in the test: 4 μM to 0.0018 μM). In each case 2 μl of the diluted substance solutions are placed into the wells of microtitre plates (Isoplate-96/200 W; Perkin Elmer). Subsequently, 50 μl of a dilution of the above-described PDE 5 preparation are added. The dilution of the PDE 5 preparation is chosen such that during the later incubation less than 70% of the substrate are converted (typical dilution: 1:100; dilution buffer: 50 mM tris/hydrochloric acid pH 7.5, 8.3 mM magnesium chloride, 1.7 mM EDTA, 0.2% BSA). The substrate, [8-^3H] cyclic guanosine-3′,5′-monophosphate (1 μCi/μl; Perkin Elmer), is diluted 1:2000 with assay buffer (50 mM tris/hydrochloric acid pH 7.5, 8.3 mM magnesium chloride, 1.7 mM EDTA) to a concentration of 0.0005 μCi/μl. By addition of 50 μl (0.025 μCi) of the diluted substrate, the enzyme reaction is finally started. The test mixtures are incubated at room temperature for 60 min and the reaction is stopped by adding 25 μl of a suspension of 18 mg/ml yttrium scintillation proximity beads in water (phosphodiesterase beads for SPA assays, RPNQ 0150, Perkin Elmer). The microtitre plates are sealed with a film and left to stand at room temperature for 60 min. Subsequently, the plates are analysed for 30 s per well in a Microbeta scintillation counter (Perkin Elmer). IC50 values are determined using the graphic plot of the substance concentration against percentage PDE 5 inhibition.
# [2] = molecular target: T2, recombinant guanylate cyclase reporter cell line (Rattus norvegicus, UniProt P19686+P20595); test: Effect on a recombinant guanylate cyclase reporter cell line (B-2); format: cell-based; settings: MEC = minimum effective concentration, in some cases mean values for individual determinations
# T2 construct: expressed in transfected cells
# T2 sequence (P19686 1-690): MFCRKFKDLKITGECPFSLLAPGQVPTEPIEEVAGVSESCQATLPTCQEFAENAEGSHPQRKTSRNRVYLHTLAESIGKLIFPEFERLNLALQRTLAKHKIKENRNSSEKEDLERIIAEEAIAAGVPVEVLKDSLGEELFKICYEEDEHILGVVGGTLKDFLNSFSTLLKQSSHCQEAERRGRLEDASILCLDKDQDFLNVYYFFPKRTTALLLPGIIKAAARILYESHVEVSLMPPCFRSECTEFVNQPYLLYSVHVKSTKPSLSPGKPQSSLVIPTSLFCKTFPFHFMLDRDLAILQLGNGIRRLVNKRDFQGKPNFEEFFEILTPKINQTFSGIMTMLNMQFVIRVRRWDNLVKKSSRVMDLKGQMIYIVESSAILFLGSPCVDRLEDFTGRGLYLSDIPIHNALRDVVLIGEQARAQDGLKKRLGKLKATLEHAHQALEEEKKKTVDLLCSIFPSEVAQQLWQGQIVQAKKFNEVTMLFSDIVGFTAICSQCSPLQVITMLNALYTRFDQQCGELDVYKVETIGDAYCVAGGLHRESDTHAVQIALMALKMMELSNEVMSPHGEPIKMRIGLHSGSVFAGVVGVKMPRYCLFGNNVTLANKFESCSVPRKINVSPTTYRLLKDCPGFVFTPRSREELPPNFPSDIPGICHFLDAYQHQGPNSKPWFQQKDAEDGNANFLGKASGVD
# T2 sequence (P20595 1-619): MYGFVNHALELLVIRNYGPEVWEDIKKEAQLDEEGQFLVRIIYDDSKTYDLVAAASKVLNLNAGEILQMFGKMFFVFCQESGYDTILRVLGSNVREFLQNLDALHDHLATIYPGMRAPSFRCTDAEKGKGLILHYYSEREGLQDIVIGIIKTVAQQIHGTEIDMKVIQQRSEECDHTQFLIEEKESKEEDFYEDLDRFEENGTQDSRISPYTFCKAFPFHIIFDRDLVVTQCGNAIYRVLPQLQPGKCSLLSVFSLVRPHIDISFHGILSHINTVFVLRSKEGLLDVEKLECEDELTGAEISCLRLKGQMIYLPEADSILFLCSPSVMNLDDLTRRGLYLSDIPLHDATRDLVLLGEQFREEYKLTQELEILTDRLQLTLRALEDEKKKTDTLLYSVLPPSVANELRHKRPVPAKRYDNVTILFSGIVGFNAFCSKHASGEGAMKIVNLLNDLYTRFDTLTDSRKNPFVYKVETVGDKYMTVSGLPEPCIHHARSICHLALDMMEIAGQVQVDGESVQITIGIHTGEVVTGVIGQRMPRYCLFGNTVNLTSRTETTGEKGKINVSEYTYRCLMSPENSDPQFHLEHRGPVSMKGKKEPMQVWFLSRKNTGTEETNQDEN
# Method: B-2. Effect on a Recombinant Guanylate Cyclase Reporter Cell Line
# The cellular activity of the compounds according to the invention is determined using a recombinant guanylate cyclase reporter cell line, as described in F. Wunder et al., Anal. Biochem. 339, 104-112 (2005).
# Representative MEC values (MEC=minimum effective concentration) for the compounds of the invention are shown in Table 1 below (in some cases as mean values for individual determinations): […]
SMILES,pIC50 [1],MEC [2] [µM]
"Cc1nc2c(OCc3c(F)cccc3F)cccn2c1-c1nc(NC[C@H](O)CO)c2c(n1)NC(=O)C2(C)C [Example 22, 2-{8-[(2,6-difluorobenzyl)oxy]-2-methylimidazo[1,2-a]pyridin-3-yl}-4-{[(2S)-2,3-dihydroxypropyl]amino}-5,5-dimethyl-5,7-dihydro-6H-pyrrolo[2,3-d]pyrimidin-6-one]",8.41,3
"Cc1nc2c(OCc3c(F)cccc3F)cccn2c1-c1nc2c(c(NC3CCC(C)(O)CC3)n1)C(C)(C)C(=O)N2 (single isomer, unassigned; diastereomer 1) [Example 28, 2-{8-[(2,6-difluorobenzyl)oxy]-2-methylimidazo[1,2-a]pyridin-3-yl)-4-[(4-hydroxy-4-methylcyclohexyl)amino]-5,5-dimethyl-5,7-dihydro-6H-pyrrolo[2,3-d]pyrimidin-6-one formate (Diastereomer 1)]",9.52,0.3
"Cc1nc2c(OCc3c(F)cccc3F)cccn2c1-c1nc(C#N)c2c(n1)NC(=O)C2(C)C [Example 48, 2-{8-[(2,6-Difluorobenzyl)oxy]-2-methylimidazo[1,2-a]pyridin-3-yl}-5,5-dimethyl-6-oxo-6,7-dihydro-5H-pyrrolo[2,3-d]pyrimidine-4-carbonitrile]",6.72,1
"Cc1nc2c(OCc3c(F)cccc3F)cccn2c1-c1nc(NCC(C)(C)O)c2c(n1)NC(=O)C2(C)C [Example 16, 2-{8-[(2,6-Difluorobenzyl)oxy]-2-methylimidazo[1,2-a]pyridin-3-yl}-4-[(2-hydroxy-2-methylpropyl)amino]-5,5-dimethyl-5,7-dihydro-6H-pyrrolo[2,3-d]pyrimidin-6-one]",8.32,0.65
"Cc1nc2c(OCc3c(F)cccc3F)cccn2c1-c1nc(CNC(=O)C2CC2)c2c(n1)NC(=O)C2(C)C [Example 66, N-[(2-{8-[(2,6-Difluorobenzyl)oxy]-2-methylimidazo[1,2-a]pyridin-3-yl}-5,5-dimethyl-6-oxo-6,7-dihydro-5H-pyrrolo[2,3-d]pyrimidin-4-yl)methyl]cyclopropanecarboxamide]",7.32,3
"Cc1nc2c(OCc3c(F)ccc(F)c3F)cccn2c1-c1nc2c(c(C(=O)O)n1)C(C)(C)C(=O)N2 [Example 54, 5,5-Dimethyl-2-{2-methyl-8-[(2,3,6-trifluorobenzyl)oxy]imidazo[1,2-a]pyridin-3-yl}-6-oxo-6,7-dihydro-5H-pyrrolo[2,3-d]pyrimidine-4-carboxylic acid]",6.38,10
"Cc1nc2c(OCc3c(F)cccc3F)cccn2c1-c1nc2c(c(OCCO)n1)C(C)(C)C(=O)N2 [Example 47, 2-{8-[(2,6-Difluorobenzyl)oxy]-2-methylimidazo[1,2-a]pyridin-3-yl}-4-(2-hydroxyethoxy)-5,5-dimethyl-5,7-dihydro-6H-pyrrolo[2,3-d]pyrimidin-6-one]",,0.3
"Cc1nc2c(OCc3c(F)ccc(F)c3F)cccn2c1-c1nc2c(c(OCCC(F)(F)F)n1)C(C)(C)C(=O)N2 [Example 77, 5,5-Dimethyl-2-{2-methyl-8-[(2,3,6-trifluorobenzyl)oxy]imidazo[1,2-a]pyridin-3-yl}-4-(3,3,3-trifluoropropoxy)-5,7-dihydro-6H-pyrrolo[2,3-d]pyrimidin-6-one]",6.85,
"Cc1nc2c(OCc3c(F)ccc(F)c3F)cccn2c1-c1nc2c(c(C(=O)NCC(C)(N)C(F)(F)F)n1)C(C)(C)C(=O)N2 (racemic) [Example 57, rac-N-(2-amino-3,3,3-trifluoro-2-methylpropyl)-5,5-dimethyl-2-{2-methyl-8-[(2,3,6-trifluorobenzyl)oxy]imidazo[1,2-a]pyridin-3-yl}-6-oxo-6,7-dihydro-5H-pyrro1o[2,3-d]pyrimidine-4-carboxamide]",8.52,
"Cc1nc2c(OCc3c(F)ccc(F)c3F)cccn2c1-c1nc(C#CC2CC2)c2c(n1)NC(=O)C2(C)C [Example 70, 4-(Cyclopropylethynyl)-5,5-dimethyl-2-{2-methyl-8-[(2,3,6-trifluorobenzyl)oxy]imidazo[1,2-a]pyridin-3-yl}-5,7-dihydro-6H-pyrrolo[2,3-d]pyrimidin-6-one]",6.37,
"Cc1nc2c(OCc3c(F)ccc(F)c3F)cccn2c1-c1nc(CCC2CC2)c2c(n1)NC(=O)C2(C)C [Example 71, 4-(2-Cyclopropylethyl)-5,5-dimethyl-2-{2-methyl-8-[(2,3,6-trifluorobenzyl)oxy]imidazo[1,2-a]pyridin-3-yl}-5,7-dihydro-6H-pyrrolo[2,3-d]pyrimidin-6-one]",6.70,
"Cc1ncc(-c2nc(-c3c(C)nc4c(OCc5c(F)ccc(F)c5F)cccn34)nc3c2C(C)(C)C(=O)N3)s1 [Example 73, 5,5-Dimethyl-4-(2-methyl-1,3-thiazol-5-yl)-2-{2-methyl-8-[(2,3,6-trifluorobenzyl)oxy]imidazo[1,2-a]pyridin-3-yl}-5,7-dihydro-6H-pyrrolo[2,3-d]pyrimidin-6-one]",7.66,
"CCCc1nc(-c2c(C)nc3c(OCc4c(F)ccc(F)c4F)cccn23)nc2c1C(C)(C)C(=O)N2 [Example 72, 5,5-Dimethyl-2-{2-methyl-8-[(2,3,6-trifluorobenzyl)oxy]imidazo[1,2-a]pyridin-3-yl}-4-propyl-5,7-dihydro-6H-pyrrolo[2,3-d]pyrimidin-6-one]",,3
"Cc1nc2c(OCc3c(F)ccc(F)c3F)cccn2c1-c1nc(NCC(C)(C)N)c2c(n1)NC(=O)C2(C)C [Example 31, 4-[(2-Amino-2-methylpropyl)amino]-5,5-dimethyl-2-{2-methyl-8-[(2,3,6-trifluorobenzyl)oxy]imidazo[1,2-a]pyridin-3-yl}-5,7-dihydro-6H-pyrrolo[2,3-d]pyrimidin-6-one formate]",8.92,
"Cc1nc2c(OCc3c(F)ccc(F)c3F)cccn2c1-c1nc2c(c(OCC3CC3)n1)C(C)(C)C(=O)N2 [Example 76, 4-(Cyclopropylmethoxy)-5,5-dimethyl-2-{2-methyl-8-[(2,3,6-trifluorobenzyl)oxy]imidazo[1,2-a]pyridin-3-yl}-5,7-dihydro-6H-pyrrolo[2,3-d]pyrimidin-6-one]",7.34,
